According to US10092564B2, “Use of masitinib for treatment of an amyotrophic lateral sclerosis patient subpopulation” (AB SCIENCE, priority 2016, dated 2018):

Tests used:
[1] = test system: patients suffering from amyotrophic lateral sclerosis (ALS); assay: Study AB10015: randomized, double-blind, placebo-controlled phase 2/3 study of masitinib in combination with riluzole versus placebo in combination with riluzole (interim and final analysis); format: in vivo, human; conditions: for Δ ALSFRS-R = (least squares means) change from baseline to week 48 in ALSFRS-R score: mITT; for Delta [CI] = absolute difference between subpopulations in Δ ALSFRS-R: in points
Text: There are two distinct populations of ALS patients: a subpopulation of “normal progressors” and a subpopulation of “faster progressors”. The targeted population for primary analysis is the subpopulation of “normal progressors”. “Normal progressors” are defined as ALS patients whose progression of ALSFRS-R score before randomization is less than 1.1 point per month. This population should represent about 80% of ALS patients. The population of “normal progressors+faster progressors” comprises all ALS patients, “normal progressor” ALS patients or “faster progressor” ALS patients. “Faster progressors” are defined as ALS patients whose progression of ALSFRS-R score before randomization is greater than or equal to 1.1 points per month. Main Inclusion Criteria: • Female or male patient aged between 18 and 75 years of age, with a weight >50 kg and body mass index between 18 and 35 kg/m^2; • Familial or sporadic ALS; • Patient diagnosed with laboratory supported, clinically probable or definite ALS according to the World Federation of Neurology Revised El Escorial criteria [Brooks B R. […] For the morning dose, tablets were taken during breakfast. In case of nausea, the administration took place during lunch. For the evening dose, tablets were taken during dinner. Modified Intent-To-Treat (mITT) dataset—The mITT population will include all ITT patients with probable or definite amyotrophic lateral sclerosis who took at least one dose of study treatment (masitinib or placebo). Change from baseline to week 48 in the revised Amyotrophic Lateral Sclerosis Functional Rating Scale (ALSFRS-R) In accordance with study AB10015 protocol, an interim analysis was planned to be performed after around 50% of the information became available for analysis. At the time of the interim analysis, 192 (50%) out of a planned 381 patients who had been randomized before the 12 Feb. 2015 could have reached the week 48 visit. […] The interim analysis primary endpoint is based on the change from baseline to week 48 in ALSFRS-R. Primary analysis was performed in the mITT “normal progressor” (i.e. non-aggressive or moderately aggressive ALS) subpopulation. […] Missing values of ALSFRS-R at study visit were replaced based on the Modified Last Observation Carried Forward (mLOCF) method. Absolute change from baseline to week 48 in ALSFRS-R was estimated using a model of analysis of covariance (ANCOVA) adjusted on following factors: treatment (masitinib or placebo), and stratification criteria of: ALS patient subpopulation, progression of ALSFRS-R score (point/month) from date of first symptom to baseline, ALSFRS-R score at baseline, site of onset (bulbar versus others), age at baseline; and geographical region. Two-sided (1-alpha) confidence interval of the difference of mean change from baseline to week 48 between groups was calculated. The primary analysis used a re-randomization test. The re-randomization test, also referred to as a randomization test or permutation test, is a type of statistical significance test in which the distribution of the test statistic under the null hypothesis is obtained by calculating all possible values of the test statistic under rearrangements of the labels on the observed data points. The proportion of replicates for which the p-value of treatment factor is at least as small as the p-value of treatment factor from the original data was calculated. In this proportion the observed p-value of treatment factor is also accounted for as one replicate in numerator and denominator. This proportion is the p-value for the randomization test. […] To control overall family-wise type I error rate at the study level, analyses of efficacy was conducted in a stepwise manner (fixed sequence method). Fixed sequence method ensures that the population claimed and treated with a selected dosage will be done by controlling the global family-wise error rate at the 0.0311 level for the primary analysis. […]

people with ALS = conditions: cited from earlier work

Compound: Cc1ccc(NC(=O)c2ccc(CN3CCN(C)CC3)cc2)cc1Nc1nc(-c2cccnc2)cs1 [Masitinib (4.5), 4-(4-methylpiperazin-1-ylmethyl)-N-[4-methyl-3-(4-pyridin-3ylthiazol-2-ylamino)phenyl]benzamide]
- Δ ALSFRS-R = (least squares means) change from baseline to week 48 in ALSFRS-R score ([1]; final AB10015, faster progressor subgroup (≥1.1 pts/m), masitinib 4.5 mg/kg/day plus riluzole, comparison with placebo arm): −17.9268
- Δ ALSFRS-R = (least squares means) change from baseline to week 48 in ALSFRS-R score ([1]; final AB10015, masitinib 4.5 mg/kg/day treated faster progressors (≥1.1 pts/m), comparison moderately aggressive vs faster progressors): −25.0567
- Δ ALSFRS-R = (least squares means) change from baseline to week 48 in ALSFRS-R score ([1]; final AB10015, masitinib 4.5 mg/kg/day treated faster progressors (≥1.1 pts/m), comparison non-aggressive vs faster progressors): −18.2920
- Δ ALSFRS-R = (least squares means) change from baseline to week 48 in ALSFRS-R score ([1]; final AB10015, masitinib 4.5 mg/kg/day treated moderately aggressive (≥0.8 to <1.1 pts/m), comparison moderately aggressive vs faster progressors): −15.7258
- Δ ALSFRS-R = (least squares means) change from baseline to week 48 in ALSFRS-R score ([1]; final AB10015, masitinib 4.5 mg/kg/day treated moderately aggressive plus aggressive (≥0.8 pts/m), comparison with non-aggressive): −15.9080
- Δ ALSFRS-R = (least squares means) change from baseline to week 48 in ALSFRS-R score ([1]; final AB10015, masitinib 4.5 mg/kg/day treated non-aggressive (<0.8 pts/m), comparison non-aggressive vs faster progressors): −7.4509
- Δ ALSFRS-R = (least squares means) change from baseline to week 48 in ALSFRS-R score ([1]; final AB10015, masitinib 4.5 mg/kg/day treated non-aggressive (<0.8 pts/m), comparison non-aggressive vs moderately aggressive plus aggressive): −7.8085
- Delta [CI] = absolute difference between subpopulations in Δ ALSFRS-R ([1]; final AB10015, masitinib 4.5 mg/kg/day treated patients, moderately aggressive (≥0.8 to <1.1 pts/m) vs faster progressors (≥1.1 pts/m), week 48, CI [−19.4226, 0.761], P=0.0687): −9.3308[−19.4226;
- Delta [CI] = absolute difference between subpopulations in Δ ALSFRS-R ([1]; final AB10015, masitinib 4.5 mg/kg/day treated patients, non-aggressive (<0.8 pts/m) vs moderately aggressive plus aggressive (≥0.8 pts/m), week 48, CI [−12.3719, −3.8271], P=0.0003): −8.0995[−12.3719;
- Δ ALSFRS-R = (least squares means) change from baseline to week 48 in ALSFRS-R score ([1]; final AB10015, non-aggressive subgroup (<0.8 pts/m), masitinib 4.5 mg/kg/day plus riluzole, comparison with placebo arm): −8.2552
- Δ ALSFRS-R = (least squares means) change from baseline to week 48 in ALSFRS-R score ([1]; final AB10015, normal progressor subgroup (<1.1 pts/m), masitinib 4.5 mg/kg/day plus riluzole, comparison with placebo arm): −8.7045
- Δ ALSFRS-R = (least squares means) change from baseline to week 48 in ALSFRS-R score ([1]; final AB10015, overall study population (normal progressor and faster progressor), masitinib 4.5 mg/kg/day plus riluzole, comparison with placebo arm): −10.7019
- conclusion on treatment effectiveness ([1]; final analysis, ALS patients with progression of ALSFRS-R score prior to treatment initiation of less than 1.1 points per month): effective treatment
- Δ ALSFRS-R = (least squares means) change from baseline to week 48 in ALSFRS-R score ([1]; final analysis, masitinib 4.5 mg/kg/day treated faster progressors (>1.1 pts/m), comparison normal vs faster progressors): −19.5855
- Δ ALSFRS-R = (least squares means) change from baseline to week 48 in ALSFRS-R score ([1]; final analysis, masitinib 4.5 mg/kg/day treated normal progressors (<1.1 pts/m), comparison normal vs faster progressors): −8.3939
- Δ ALSFRS-R = (least squares means) change from baseline to week 48 in ALSFRS-R score ([1]; final analysis, moderately aggressive subgroup (≥0.8 to <1.1 pts/m), masitinib 4.5 mg/kg/day plus riluzole, comparison with placebo arm): −11.0031
- conclusion on treatment effectiveness ([1]; final analysis, progression of ALSFRS-R score of at least 1.1 points per month (aggressive ALS)): ineffective treatment
- conclusion on treatment effectiveness ([1]; final analysis, progression of ALSFRS-R score of less than 0.8 points per month (non-aggressive ALS)): most effective
- conclusion on treatment effectiveness ([1]; final analysis, progression of ALSFRS-R score of ≥0.8 to <1.1 points per month (moderately aggressive ALS), to a lesser extent than non-aggressive): effective
- difference between treatment-arms (masitinib versus placebo) in ALSFRS-R change from baseline to week 48 ([1]; final, faster progressors subpopulation (≥1.1 points per month), 4.5 mg/kg/day): No significant difference
- average decrease in ALSFRS-R score ([1]; final, masitinib 4.5 mg/kg/day treated faster progressors, week 48): 19.6 points
- average decrease in ALSFRS-R score ([1]; final, masitinib 4.5 mg/kg/day treated normal progressors, week 48): 8.4 points
- difference in decrease of ALSFRS-R score between normal progressors and faster progressors ([1]; final, masitinib 4.5 mg/kg/day treated patients, week 48, P<0.001): 11.2 points
- treatment effect in terms of ALSFRS-R score of moderately aggressive ALS patients over aggressive ALS patients ([1]; final, masitinib treated, ≥0.8 to <1.1 vs ≥1.1 points per month): strong trend in treatment effect
- retardation in ALSFRS-R score, difference masitinib versus placebo ([1]; final, moderately aggressive ALS patients (≥0.8 to <1.1 points per month), 4.5 mg/kg/day, week 48): 2.2 points
- change in ALSFRS-R score ([1]; final, moderately aggressive ALS patients (≥0.8 to <1.1 points per month), masitinib 4.5 mg/kg/day, week 48, placebo −13.2): −11 points
- retardation in ALSFRS-R score, difference masitinib versus placebo ([1]; final, non-aggressive ALS patients (<0.8 points per month), 4.5 mg/kg/day, week 48): 3.4 points
- change in ALSFRS-R score ([1]; final, non-aggressive ALS patients (<0.8 points per month), masitinib 4.5 mg/kg/day, week 48, placebo −11.7): −8.3 points
- difference in ALSFRS-R score between masitinib and placebo ([1]; final, normal progressors (<1.1 points per month), 4.5 mg/kg/day, week 48): 3.4 points
- average decrease in ALSFRS-R score ([1]; final, normal progressors (<1.1 points per month), masitinib 4.5 mg/kg/day, week 48, placebo −12.1, P=0.0142): 8.7 points
- difference between treatment-arms (masitinib versus placebo) in ALSFRS-R change from baseline to week 48 ([1]; final, overall study population (normal progressor and faster progressor patients), 4.5 mg/kg/day, P=0.11): no significant difference
- Δ ALSFRS-R = (least squares means) change from baseline to week 48 in ALSFRS-R score ([1]; interim AB10015, faster progressor subgroup (≥1.1 points/month), masitinib 4.5 mg/kg/day plus riluzole, comparison with placebo arm): −20.77
- Δ ALSFRS-R = (least squares means) change from baseline to week 48 in ALSFRS-R score ([1]; interim AB10015, masitinib 4.5 mg/kg/day treated faster progressors (≥1.1 points/month), subpopulation comparison normal vs faster): −17.90
- Δ ALSFRS-R = (least squares means) change from baseline to week 48 in ALSFRS-R score ([1]; interim AB10015, masitinib 4.5 mg/kg/day treated normal progressors (<1.1 points/month), subpopulation comparison normal vs faster): −5.57
- Δ ALSFRS-R = (least squares means) change from baseline to week 48 in ALSFRS-R score ([1]; interim AB10015, normal progressor subgroup (<1.1 points/month), masitinib 4.5 mg/kg/day plus riluzole, comparison with placebo arm): −9.02
- difference between treatment-arms (masitinib versus placebo) in ALSFRS-R change from baseline to week 48 ([1]; interim, faster progressor subpopulation, 4.5 mg/kg/day): No significant difference
- average decrease in ALSFRS-R score ([1]; interim, masitinib 4.5 mg/kg/day treated faster progressor (aggressive ALS) patients, week 48): 17.9 points
- average decrease in ALSFRS-R score ([1]; interim, masitinib 4.5 mg/kg/day treated normal progressor (non-aggressive or moderately aggressive ALS) patients, week 48): 5.57 points
- average decrease in ALSFRS-R score ([1]; interim, normal progressors, masitinib 4.5 mg/kg/day, baseline to week 48, placebo 14.51, P=0.0032): 9.02 points

Compound: Nc1nc2ccc(OC(F)(F)F)cc2s1 [riluzole, 6-(trifluoromethoxy)benzothiazol-2-amine]
- effect on patient function (people with ALS; any of the randomized trials considered separately): no beneficial effect
- effect on bulbar and limb function (people with ALS; data of the trials combined, not on muscle strength, to be interpreted with caution): small beneficial effect
- safety of the drug (people with ALS; riluzole 100 mg, meta-analysis): not a major concern
